This note sets out measurements from patent US9927437B2, “Treating neurodegenerative disease” (THE BRIGHAM AND WOMEN'S HOSPITAL, INC., priority 2013, dated 2018).

“Also recorded” adds a separate entry of the source.

The subject of series [1] is Naïve C57BL/6 and NOD mice. The series is described as follows: LacCer administration to naïve mice without MOG immunization. The settings on record: 10 μg per mouse, absence of MOG immunization. Type of series: in vivo. The protocol: FIGS. 12a-i. […] (a) Naïve C57BL/6 (Left panel) and NOD (right panel) mice were treated with LacCer (10 μg per mouse) or vehicle as indicated by red arrows, and EAE clinical scores was recorded. At experimental end point (day 25), astrocytes were isolated and their transcriptional profile was determined by nCounter Nanostring analysis. (b-e) EAE was induced in C57BL/6 (b, c) or NOD mice (d, e) and LacCer or vehicle were administrated as in FIGS. 1g and 1h, respectively. Splenic T-cell recall response to MOG(35-55) (20 μg/ml); proliferation (b, d) and secretion of IL-17A, IFN-γ and IL-10 cytokines (c, e). Data are representative of two independent experiments with ≥8 mice/group (mean and s.e.m.). (f-i) EAE NOD mice were treated with PDMP or vehicle during the chronic phase as in FIG. 1K. Data are representative of three independent experiments with n≥8 mice/group (mean and s.e.m.). (f) qPCR analysis of the expression of tbx21, ifng, rorc, il17A, csf2, il10, foxp3, and tgfb1 mRNA of CD3^+CD4^+ T-cells isolated from the CNS; expression is presented relative to gapdh. (g, h) Recall response to MOG(35-55) (20 μg/ml); proliferation (g) and secretion of IL-17A, IFN-γ and IL-10 cytokines (h). (i) Expression of IFN-γ, IL-17A, Foxp3 and IL-10 by splenic CD3^+CD4^+ T cells (mean and s.e.m.).

The next series relates to choroid plexus cells. The series is described as follows: Transcriptional response of choroid plexus cells to LPS/IFNγ. Type of series: cell-based, mouse. The settings on record: LacCer 10 μM 1 h, LPS/IFNγ 6 h. The protocol: (§1) FIGS. 15a-b. […] Leptomeningeal phagocytes (a) and choroid plexus cells (b) were pre-treated for 1 h with LacCer (10 μM), or vehicle control (vehicle), followed by activation with LPS/IFNγ for 6 h, or left un-treated (control, Con). mRNA expression was determined by nCounter Nanostring analysis. Representative data of two independent experiments.
Mouse primary choroid plexus cells were prepared as described^55,56 with minor modifications. In brief, the choroid plexus was removed from 1- to 3-day-old neonatal mice, digested with 1% collagenase for 20 min at 37° C., and then dispersed into a single-cell level. The cell suspension was washed in culture medium for choroid plexus cells [Dulbecco's modified Eagle medium/Ham's F12 (Invitrogen) supplemented with 10% foetal calf serum (Sigma-Aldrich), 1 mM 1-glutamine, 1 mM sodium pyruvate, 100 U/ml penicillin, […] streptomycin, […] insulin, […] Ara-C) and cultured (2.5×10^5 cells/well) at 37° C., 5% CO2 in poly-D-lysine coated 24-well plates. After 24 h, the medium was changed, and the cells were either left untreated or treated as described.

Series [2] deals with leptomeningeal phagocytes. The series is described as follows: Transcriptional response of leptomeningeal phagocytes to LPS/IFNγ. Type of series: cell-based, mouse. The settings on record: LacCer 10 μM 1 h, LPS/IFNγ 6 h. The protocol: as §1
The meninges were carefully stripped from the brains of 1- to 3-day-old neonatal mice, and digested with 1% collagenase for 20 min at 37° C., and then dispersed into a single-cell level. Isolated cells, were incubated with anti-mouse CD16/CD32 for 15 min on ice to block the Fc receptors, and stained with APC-conjugated antibody for CD11b (M1/70) for 30 min at 4° C. Cells were washed, incubated with 7-AAD for exclusion of dead cells, and sorted.

Turning to lactosylceramide [LacCer], the “induction of EAE-like disease” value in series [1] was “did not result in the induction of EAE-like disease”. Also, the “transcriptional response to activation of choroid plexus cells” value in the series on choroid plexus cells is “did not affect the transcriptional response; also recorded: does not affect the transcriptional response”. Moreover, the “transcriptional response to activation of leptomeningeal phagocytes” value in series [2] is recorded as “did not affect the transcriptional response; also recorded: does not affect the transcriptional response”.
